The values below come from ChEMBL document CHEMBL4342432, “Hydroxyl substituted benzoic acid/cinnamic acid derivatives: Tyrosinase inhibitory kinetics, anti-melanogenic activity and molecular docking studies” (Bioorg Med Chem Lett, 2020).

The source made the active and inactive calls. No cut-off for these calls is given here.

The target of data set [1] is T1, Tyrosinase (Agaricus bisporus, UniProt O42713).
T1 sequence (O42713 whole entry): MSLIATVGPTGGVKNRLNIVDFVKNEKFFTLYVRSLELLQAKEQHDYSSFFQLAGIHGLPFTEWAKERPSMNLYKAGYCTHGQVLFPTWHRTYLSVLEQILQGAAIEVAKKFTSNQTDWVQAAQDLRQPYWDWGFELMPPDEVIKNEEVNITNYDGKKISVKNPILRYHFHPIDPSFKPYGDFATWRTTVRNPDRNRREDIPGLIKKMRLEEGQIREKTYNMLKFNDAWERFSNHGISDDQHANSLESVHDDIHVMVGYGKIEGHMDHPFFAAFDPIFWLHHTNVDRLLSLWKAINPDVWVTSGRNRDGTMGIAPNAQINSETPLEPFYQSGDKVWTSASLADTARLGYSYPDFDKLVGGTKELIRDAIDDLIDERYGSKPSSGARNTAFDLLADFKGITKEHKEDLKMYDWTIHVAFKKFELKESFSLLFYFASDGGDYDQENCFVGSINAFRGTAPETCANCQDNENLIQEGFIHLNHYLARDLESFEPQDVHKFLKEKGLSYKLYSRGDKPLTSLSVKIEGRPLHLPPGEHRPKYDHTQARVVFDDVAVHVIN
Nature of the data set: Inhibition of mushroom tyrosinase assessed as reduction in dopachrome formation using L-DOPA as substrate preincubated for 10 mins followed by substrate addition and further incubated for 20 mins by microplate reader assay.

For data set [2], the target named is T1, Tyrosinase.
Data set [3] is described as follows: Cytotoxicity against mouse B16F10 cells assessed as cell viability at 40 ug/ml incubated for 24 hrs by MTT assay relative to control. It is filed as cell-based, B16-F10. To be noted: read-out: Activity.
Data set [4] in a line: Cytotoxicity against mouse B16F10 cells assessed as cell viability at 30 ug/ml incubated for 24 hrs by MTT assay relative to control. To be noted: read-out: Activity. It is filed as cell-based, B16-F10.
Data set [5] has as its target T2, Tyrosinase (Mus musculus) (UniProt P11344).
T2 sequence (whole entry): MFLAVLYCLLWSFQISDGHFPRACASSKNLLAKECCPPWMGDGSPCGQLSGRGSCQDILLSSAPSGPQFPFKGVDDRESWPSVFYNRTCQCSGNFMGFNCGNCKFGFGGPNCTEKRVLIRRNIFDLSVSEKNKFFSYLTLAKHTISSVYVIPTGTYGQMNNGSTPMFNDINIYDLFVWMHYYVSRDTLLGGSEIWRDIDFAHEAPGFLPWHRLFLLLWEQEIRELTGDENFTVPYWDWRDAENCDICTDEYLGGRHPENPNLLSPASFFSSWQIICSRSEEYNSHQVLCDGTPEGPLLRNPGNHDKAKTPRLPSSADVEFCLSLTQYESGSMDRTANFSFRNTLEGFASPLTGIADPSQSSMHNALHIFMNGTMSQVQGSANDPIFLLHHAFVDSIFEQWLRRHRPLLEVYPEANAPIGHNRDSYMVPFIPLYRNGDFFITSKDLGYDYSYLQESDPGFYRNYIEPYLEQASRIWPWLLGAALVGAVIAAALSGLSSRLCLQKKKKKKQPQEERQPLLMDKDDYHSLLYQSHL
Nature of the data set: Inhibition of tyrosinase in mouse B16F10 cells assessed as transformation of L-DOPA into dopachrome measured after 24 hrs by microplate reader analysis. It is filed as cell-based.

In data set [6] the target is T2, Tyrosinase (Mus musculus). Briefly: Inhibition of tyrosinase in mouse B16F10 cells assessed as alpha-MSH-stimulated melanogenesis measured as melanin content at 25 to 30 ug/ml measured after 24 hrs in presence of alpha-MSH by microplate reader analysis. It is filed as cell-based.
The test system of a further data set is B16-F10. Nature of the data set: Cytotoxicity against mouse B16F10 cells assessed as effect on cell morphology at 20 to 60 ug/ml incubated for 24 hrs by fluorescent inverted microscopy analysis. It is filed as cell-based. The conditions noted are these: b16-f10, 24 h.

Turning to `COc1cccc(OC(=O)COC(=O)/C=C/c2ccccc2)c1`, the IC50 at Tyrosinase [1] was 39.4 µM. The same measure, in the same setting: the result for `COc1cccc(OC(=O)COC(=O)c2ccc(O)c(O)c2)c1` reads 299 µM. On to `COc1cccc(OC(=O)COC(=O)c2ccc(O)cc2O)c1`, for which, at Tyrosinase [2], the inhibitory constant (Ki) turned out to be 130 µM. Moreover, at Tyrosinase [1], the IC50 is 23.8 µM.

For `COc1cccc(OC(=O)COC(=O)c2ccc(O)cc2)c1`, the half-inhibitory concentration (IC50) on Tyrosinase [1] was determined as 338 µM. Take `COc1cccc(OC(=O)COC(=O)c2cccc(O)c2)c1`: the IC50 at Tyrosinase [1] is 315 µM. For the molecule `COc1cccc(OC(=O)COC(=O)/C=C/c2ccc(O)cc2)c1`, the viability at 24 h, 40 ug/ml in data set [3] is > 95%. The viability at 24 h, 30 ug/ml in data set [4] is > 99%. Further, the inhibition entry in data set [5] was “Dose-dependent effect”. At Tyrosinase [2], this molecule returned a Ki of 11 µM. Moreover, in data set [6], the inhibition entry is “Active”. Besides, the IC50 on Tyrosinase [1] came to 5.7 µM. Further, the Activity entry in the data set on B16-F10 is given as “Non-Toxic”.

Regarding `COc1cccc(OC(=O)COC(=O)/C=C/c2ccccc2O)c1`, the IC50 at Tyrosinase [1] worked out at 173 µM. Same read-out and setting: then `O=C(/C=C/c1ccc(O)cc1)OCC(=O)Oc1ccc2ccc(=O)oc2c1`, with 124 µM; and `COc1cccc(OC(=O)COC(=O)c2cc(O)cc(O)c2)c1`, with 193 µM.
